Measured values taken from patent publication US8829007B2 (priority 2009, dated 2014).
Structures can show the parent of a compound that is named as a salt. Where two headings read alike, the source gives them in different places.

Legend:
[1] = tested on: influenza A virus (A/PR/8/34); assay: microbe, parasite or virus in culture; assay type: cell-based
[2] = tested on: A/PR/8/34 influenza virus; assay: microbe, parasite or virus in culture; assay type: cell-based
[3] = Influenza A virus, PR/8, MDCK, CPE assay, A/PR/8/34 infected MDCK cells, class symbols, read-out: IC50 (mean all)
[4] = Influenza A virus, PR/8, MDCK, bDNA assay, A/PR/8/34 influenza virus replication in MDCK cells, class symbols, read-out: EC50 (mean all)
[5] = Influenza A virus, PR/8, MDCK, MDCK cells infected with A/PR/8/34, cell protection (CPE), read-out: IC50 (mean all)
[6] = Influenza A virus, PR/8, MDCK, MDCK cells infected with A/PR/8/34, bDNA viral RNA, read-out: EC50 (mean all)
[7] = Influenza A virus, PR/8, MDCK, mean all, A/PR/8/34 infected MDCK cells, CPE assay, read-out: IC50
[8] = Influenza A virus, PR/8, MDCK, mean all, A/PR/8/34 influenza virus in MDCK cells, bDNA assay, read-out: EC50
[9] = mean all, MDCK cells infected with A/PR/8/34, cell protection (CPE), read-out: IC50
[10] = mean all, bDNA viral RNA in MDCK cells infected with A/PR/8/34, read-out: EC50
[11] = Influenza A virus, PR/8, MDCK, MDCK cells infected with A/PR/8/34, survival of infected cells, class symbols, read-out: IC50 (mean all)
[12] = Influenza A virus, PR/8, MDCK, MDCK cells infected with A/PR/8/34, replication of influenza virus (viral RNA, bDNA), class symbols, read-out: EC50 (mean all)

Structure (SMILES): O=C(N[C@@H]1CCC[C@H](Nc2nc(-c3c[nH]c4ncc(Cl)cc34)ncc2F)C1)C1CCOC1 (stereo partly drawn) [Compound 652, N-[(1R,3S)-3-[[2-(5-chloro-1H-pyrrolo[2,3-b]pyridin-3-yl)-5-fluoro-pyrimidin-4-yl]amino]cyclohexyl]tetrahydrofuran-3-carboxamide hydrochloride]
- IC50 [1, 3]: < 5 µM
- EC50 [2, 4]: < 5 µM

Structure (SMILES): C#CCOC(=O)N1CCCC[C@H]1CNc1nc(-c2c[nH]c3ncc(Cl)cc23)ncc1F [Compound 164, (S)-prop-2-ynyl 2-((2-(5-chloro-1H-pyrrolo[2,3-b]pyridin-3-yl)-5-fluoropyrimidin-4-ylamino)methyl)piperidine-1-carboxylate]
- IC50 [1, 5]: > 20 µM
- EC50 [2, 6]: < 5 µM

Structure (SMILES): O=S(=O)(c1cccc(F)c1)N1CCC[C@H](CNc2nc(-c3c[nH]c4ncc(Cl)cc34)ncc2F)C1 [Compound 65, (R)-2-(5-chloro-1H-pyrrolo[2,3-b]pyridin-3-yl)-5-fluoro-N-((1-(3-fluorophenylsulfonyl)piperidin-3-yl)methyl)pyrimidin-4-amine]
- IC50 [1, 5]: < 5 µM
- EC50 [2, 6]: < 5 µM

Structure (SMILES): CC(C)NC(=O)N1CCC[C@@H](CNc2nc(-c3c[nH]c4ncc(Cl)cc34)ncc2F)C1 [Compound 27, (S)-3-((2-(5-chloro-1H-pyrrolo[2,3-b]pyridin-3-yl)-5-fluoropyrimidin-4-ylamino)methyl)-N-isopropylpiperidine-1-carboxamide]
- IC50 [1, 5]: < 5 µM
- EC50 [2, 6]: < 5 µM

Structure (SMILES): CC(C)(C)OC(=O)N1CCC[C@H](CNc2nc(-c3c[nH]c4ncc(Cl)cc34)ncc2F)C1 [Compound 15, (R)-tert-butyl 3-((2-(5-chloro-1H-pyrrolo[2,3-b]pyridin-3-yl)-5-fluoropyrimidin-4-ylamino)methyl)piperidine-1-carboxylate]
- IC50 [1, 5]: 5 to 20 µM
- EC50 [2, 6]: < 5 µM

Structure (SMILES): COC(=O)NC(=O)N1CCC[C@H](CNc2nc(-c3c[nH]c4ncc(Cl)cc34)ncc2F)C1 [Compound 131, (R)-methyl 3-((2-(5-chloro-1H-pyrrolo[2,3-b]pyridin-3-yl)-5-fluoropyrimidin-4-ylamino)methyl)piperidine-1-carbonylcarbamate]
- IC50 [1, 5]: < 5 µM
- EC50 [2, 6]: < 5 µM

Structure (SMILES): CNC(=O)C[C@]1(O)CCCC(Nc2nc(-c3c[nH]c4ncc(Cl)cc34)ncc2F)C1 (some centres unmarked) [Compound 751]
- IC50 ([1]; Influenza A virus, PR/8, MDCK, mean all, MDCK cells infected with A/PR/8/34, cell protection (CPE), read-out: IC50): < 5 µM
- EC50 ([2]; Influenza A virus, PR/8, MDCK, mean all, bDNA viral RNA in MDCK cells infected with A/PR/8/34, read-out: EC50): < 5 µM

Structure (SMILES): CS(=O)(=O)N[C@H]1CCCC[C@@H]1Nc1nc(-c2c[nH]c3ncc(Cl)cc23)ncc1F [Compound 428, N-[(1S,2S)-2-[[2-(5-chloro-1H-pyrrolo[2,3-b]pyridin-3-yl)-5-fluoro-pyrimidin-4-yl]amino]cyclohexyl]methanesulfonamide]
- IC50 ([1]; Influenza A virus, PR/8, MDCK, exemplary values in text, survival of A/PR/8/34 infected cells, read-out: IC50): 0.03 µM
- IC50 [1, 7]: < 5 µM
- EC50 [2, 8]: < 5 µM

Structure (SMILES): CC#CCOC(=O)NC1CCCC(Nc2nc(-c3c[nH]c4ncc(Cl)cc34)ncc2F)C1 (centres unmarked) [Compound 701]
- IC50 [1, 9]: < 5 µM
- EC50 [2, 10]: < 5 µM

Structure (SMILES): C=CCC(=O)N1CCC[C@@H](CNc2nc(-c3c[nH]c4ncc(Cl)cc34)ncc2F)C1 [Compound 49, (S)-1-(3-((2-(5-chloro-1H-pyrrolo[2,3-b]pyridin-3-yl)-5-fluoropyrimidin-4-ylamino)methyl)piperidin-1-yl)but-3-en-1-one]
- IC50 [1, 5]: < 5 µM
- EC50 [2, 6]: < 5 µM

Structure (SMILES): N#CCC(=O)NC1CCCC(Nc2nc(-c3c[nH]c4ncc(Cl)cc34)ncc2F)C1 (centres unmarked) [Compound 724]
- IC50 [1, 9]: < 5 µM
- EC50 [2, 10]: < 5 µM

Structure (SMILES): O=C1CC2(CCC[C@H](Nc3nc(-c4c[nH]c5ncc(Cl)cc45)ncc3F)C2)CN1 (stereo partly drawn) [Compound 969, (7S)-7-(2-(5-chloro-1H-pyrrolo[2,3-b]pyridin-3-yl)-5-fluoropyrimidin-4-ylamino)-2-azaspiro[4.5]decan-3-one]
- IC50 ([1]; Influenza A virus, PR/8, MDCK, mean all, survival of A/PR/8/34 infected MDCK cells (CPE assay), read-out: IC50): < 5 µM
- EC50 ([2]; Influenza A virus, PR/8, mean all, replication of A/PR/8/34 influenza virus (bDNA assay), read-out: EC50): < 5 µM

Structure (SMILES): CS(=O)(=O)C[C@@]1(O)CCC[C@H](Nc2nc(-c3c[nH]c4ncc(Cl)cc34)ncc2F)C1 [Compound 886]
- IC50 ([1]; read-out: IC50): < 5 µM
- EC50 ([2]; mean all, replication of A/PR/8/34 influenza virus (bDNA assay), read-out: EC50): < 5 µM

Structure (SMILES): O[C@H]1[C@@H](Nc2nc(-c3c[nH]c4ncc(Cl)cc34)ncc2F)CCC[C@@H]1O [Compound 615]
- IC50 [1, 3]: < 5 µM
- EC50 [2, 4]: < 5 µM

Structure (SMILES): O=C(COCc1ccccc1)N1CCC[C@H](CNc2nc(-c3c[nH]c4ncc(Cl)cc34)ncc2F)C1 [Compound 106, (R)-2-(benzyloxy)-1-(3-((2-(5-chloro-1H-pyrrolo[2,3-b]pyridin-3-yl)-5-fluoropyrimidin-4-ylamino)methyl)piperidin-1-yl)ethanone]
- IC50 [1, 5]: < 5 µM
- EC50 [2, 6]: < 5 µM

Structure (SMILES): O=C(c1cnccn1)N1CCC[C@H](CNc2nc(-c3c[nH]c4ncc(Cl)cc34)ncc2F)C1 [Compound 101, (R)-(3-((2-(5-chloro-1H-pyrrolo[2,3-b]pyridin-3-yl)-5-fluoropyrimidin-4-ylamino)methyl)piperidin-1-yl)(pyrazin-2-yl)methanone]
- IC50 [1, 5]: < 5 µM
- EC50 [2, 6]: < 5 µM

Structure (SMILES): N=C(N)N[C@@H]1CCC[C@H](Nc2nc(-c3c[nH]c4ncc(F)cc34)ncc2F)C1 [Compound 1143, 1-((1R,3S)-3-(5-fluoro-2-(5-fluoro-1H-pyrrolo[2,3-b]pyridin-3-yl)pyrimidin-4-ylamino)cyclohexyl)guanidine]
- IC50 ([1]; Influenza A virus, PR/8, MDCK, MDCK cells, A/PR/8/34, ATP readout, mean all, read-out: Cell Flu, MDCK protection, ATP (All: IC50: uM)(Mean (All))): < 5 µM
- EC50 ([2]; Influenza A virus, PR/8, 30 h, HA(−) 30 hr, A/PR/8, bDNA, mean all, read-out: Cell Influenza HA(−) 30 hr A/PR/8 bDNA:bDNA EC50 uM(Mean (All))): < 5 µM

Structure (SMILES): NC(=O)N1CCOCC1CNc1nc(-c2c[nH]c3ncc(Cl)cc23)ncc1F (centres unmarked) [Compound 534, 3-((2-(5-chloro-1H-pyrrolo[2,3-b]pyridin-3-yl)-5-fluoropyrimidin-4-ylamino)methyl)morpholine-4-carboxamide]
- IC50 [1, 11]: 5 to 20 µM
- EC50 [2, 12]: < 5 µM

Structure (SMILES): COC(=O)N[C@@H]1CCC[C@H](Nc2nc(-c3c[nH]c4ncc(Cl)cc34)ncc2F)C1 [Compound 570, methyl N-[(1R,3S)-3-[[2-(5-chloro-1H-pyrrolo[2,3-b]pyridin-3-yl)-5-fluoro-pyrimidin-4-yl]amino]cyclohexyl]carbamate]
- IC50 [1, 11]: < 5 µM
- EC50 [2, 12]: < 5 µM

Structure (SMILES): O=c1[nH]c(=O)n([C@@H]2CCC[C@H](Nc3nc(-c4c[nH]c5ncc(Cl)cc45)ncc3F)C2)o1 [Compound 796]
- IC50 ([1]; read-out: IC50): < 5 µM
- EC50 ([2]; mean all, A/PR/8/34 influenza virus replication, bDNA, read-out: EC50): < 5 µM

Structure (SMILES): O=C(C1CC1)N1CCC[C@@H](Nc2nc(-c3c[nH]c4ncc(Cl)cc34)ncc2F)C1 [Compound 317]
- IC50 [1, 7]: 5 to 20 µM
- EC50 [2, 8]: < 5 µM

Structure (SMILES): O=C(O)[C@@H]1CCCC[C@@H]1Nc1nc(-c2c[nH]c3ncc(Cl)cc23)ncc1F (relative stereo) [Compound 554]
- IC50 ([1]; read-out: IC50 (mean all)): > 10 µM
- EC50 ([2]; […], replication of influenza virus (viral RNA, bDNA), class symbols, read-out: EC50 (mean all)): 5 to 10 µM

Structure (SMILES): CCNC(=O)C1CCCC(Nc2nc(-c3c[nH]c4ncc(Cl)cc34)ncc2F)C1O (centres unmarked) [Compound 815, 3-[[2-(5-chloro-1H-pyrrolo[2,3-b]pyridin-3-yl)-5-fluoro-pyrimidin-4-yl]amino]-N-ethyl-2-hydroxy-cyclohexanecarboxamide]
- IC50 ([1]; Influenza A virus, PR/8, MDCK, mean all, A/PR/8/34 infected MDCK cells, cell protection (CPE), read-out: IC50): < 5 µM
- EC50 ([2]; Influenza A virus, PR/8, mean all, A/PR/8/34 influenza virus replication, bDNA, read-out: EC50): < 5 µM

Structure (SMILES): COC(=O)NC1CCCC(Nc2nc(-c3c[nH]c4ncc(F)cc34)ncc2F)C1 (centres unmarked) [Compound 705]
- IC50 [1, 9]: < 5 µM
- EC50 [2, 10]: < 5 µM

Structure (SMILES): CC(Cl)C(=O)N1CCC[C@H](CNc2nc(-c3c[nH]c4ncc(Cl)cc34)ncc2F)C1 (stereo partly drawn) [Compound 93, 2-chloro-1-((R)-3-((2-(5-chloro-1H-pyrrolo[2,3-b]pyridin-3-yl)-5-fluoropyrimidin-4-ylamino)methyl)piperidin-1-yl)propan-1-one]
- IC50 [1, 5]: < 5 µM
- EC50 [2, 6]: < 5 µM

Structure (SMILES): COCC(O)CN1CCCC(Nc2nc(-c3c[nH]c4ncc(Cl)cc34)ncc2F)C1 [Compound 537, 1-((S)-3-((2-(5-chloro-1H-pyrrolo[2,3-b]pyridin-3-yl)-5-fluoropyrimidin-4-ylamino)piperidin-1-yl)-3-methoxypropan-2-ol]
- IC50 [1, 11]: < 5 µM
- EC50 [2, 12]: < 5 µM
